According to article PMC6530361, “Anti-tumor Efficacy Assessment of the Sigma Receptor Pan Modulator RC-106. A Promising Therapeutic Tool for Pancreatic Cancer” (Frontiers in Pharmacology, 2019):
Where two headings read alike, the source gives them in different places.

Experiments:
Capan-2 = test: MTS assay (cell viability, 2D); assay type: cell-based; settings: Homo sapiens
Protocol: (§1) Pancreatic adenocarcinoma Panc-1, Capan-1, and Capan-2, cell lines were purchased by the ATCC. All cell lines were grown in culture medium composed of DMEM/Ham’s F12 (1:1; Euroclone) supplemented with fetal calf serum (10%; Euroclone), glutamine (2 mM; Euroclone), and insulin (10 μg/mL; Sigma-Aldrich, St. Louis, MO, United States). All experiments were performed on cells in the exponential growth phase and checked periodically for mycoplasma contamination by MycoAlert^TM Mycoplasma Detection Kit (Lonza, Basel, Switzerland).
(§2) Cytotoxicity was assayed using CellTiter 96® AQueous One Solution Cell Proliferation Assay (Promega, Milan, Italy). Cells were seeded onto a 96-well plate at a density of 3 × 10^3 cells per well. Cell lines were exposed to increasing concentrations of the drug, ranging from 0.1 to 100 μM. The effect of the drug was evaluated after 24, 48, and 72 h of continued exposure. Two independent experiments were performed in octuplicate. The OD of treated and untreated cells was determined at a wavelength of 490 nm using a […].
(§3) Dose response curves were created by Excel software. IC50 values were determined graphically from the plot.

Capan-1 = test: MTS assay (cell viability, 2D); assay type: cell-based; settings: Homo sapiens
Protocol: as §1, §2, §3

[1] = test system: Panc-1, Capan-1, and Capan-2; test: MTS assay, all cell lines tested; assay type: cell-based; settings: 24, 48, and 72 h exposure
Protocol: as §1, §2, §3

S1R = test system: S1R; parameters: method as in Rui et al., 2016; Rossi et al., 2017; settings: ref Rui et al., 2016; Rossi et al., 2017; cited from earlier work
[2] = In vivo pancreas distribution study; parameters: species or system male CD-1 mice; settings: male, CD-1, mouse, ip, mice
Protocol: The experiments were performed in agreement with the Italian Law D. L.vo 4 marzo 2014, n. 26. The treatments involved male CD-1 mice and a unique number on the tail identified each animal. Mice were housed, in groups of four, in cages suitable for the species. After 5 days of adaptation to the local housing conditions, animals were housed in a single, exclusive, air-conditioned room to provide a minimum of 15 air changes/hour. The environmental controls were set to maintain the temperature at around 22°C and the relative humidity within the range 50 to 60%, along with an approximate 12:12 h light/dark cycle automatically controlled. Food (Mucedola Standard GLP diet) and water were available ad libitum throughout the entire duration of the study. All animals were weighted on the day of the treatment.
Mice (n = 4/time point) received an intraperitoneal administration (i.p., 10 mL/kg) of RC-106 at 10 mg/kg. CD-1 male mice were exsanguinated under anesthesia (isoflurane) from the aorta at the following time points: 5, 10, 30, 120, 240, and 480 min. Blood samples were collected in tubes containing heparin, gently mixed and immediately placed on ice. Afterward, they have been centrifuged (3500 × g, at 4°C for 15 min), the obtained plasma has been collected and transferred to individually labeled tubes and frozen at -20°C until the analysis. Plasma samples were used for quantification of RC-106. […] The organ was homogenized using a Velp OV5 homogenizer with 20 mM ammonium formiate buffer in a ratio of 1 g of tissue per 10 mL of buffer.
20 mg/mL stock solution (s.s.) of RC-106 was prepared by dissolving the compound in DMSO. 1 mL of 5% Tween80 in H2O was slowly added to 500 μL of s.s. under stirring. Then 8.5 mL of water was gently spiked to obtain the 1 mg/mL formulation of RC-106.
Standard curves of RC-106 were prepared for plasma and pancreas homogenate, and analyzed together with each QC and unknown sample set. For the PK and pancreas distribution sample analysis, plasma and pancreas homogenate samples (50 μL) were spiked in 200 μL of IS in MeOH (0.1 μg/mL of RC-33), followed by 2 min vortex mixing. Samples were centrifuged and transferred in UFLC vials. 5 μL aliquots of the collected samples were injected into the LC-MS/MS system. Standard calibration graphs were constructed by linear least-squares regression analysis on the analyte/IS area ratio plotted against sample concentration. Calibration ranges were from 5 to 1000 ng/mL for plasma, and from 5 to 500 ng/mL for pancreas homogenate. Accuracy values were determined in triplicates at three different concentrations (high, medium, and low) in the range of linearity of the calibration curves.
Analyses were acquired on a Shimadzu AC20 UFLC system interfaced with an API 3200 Triple Quadrupole detector (AB Sciex). Data acquisition and control were performed using the Analyst^TM 6.1 (Applied Biosystems) Software. A Phenomenex Gemini-NX C18 (50 mm × 2 mm, 5 μm) column was selected to carry out the analytical evaluations. A gradient method was set up (Supplementary Table S1) and it provided the employment of water and methanol, both containing 0.1% of formic acid, at a flow rate of 0.3 mL/min. The LC eluate was directly introduced into the MS interface using the ESI in the positive ion mode. The MRM transitions m/z 181.2 were tracked (Supplementary Table S2).

[3] = test system: Panc-1, Capan-1, and Capan-2; test: Real-Time qRT-PCR of ER stress/UPR marker genes, all cell lines; assay type: cell-based; settings: exposure to 50 μM; 6, 12, and 24 h
Protocol: Total cellular RNA was extracted using TRIzol reagent (Life technologies) in accordance with manufacturer’s instruction and quantified using the Nanodrop MD-1000 spectrophotometer system. Reverse transcription reactions were performed in 20 μL of nuclease free water containing 400 ng of total RNA using iScript cDNA Synthesis kit (Bio-Rad Laboratories, Hercules, CA). Real-Time PCR was run using 7500 Fast Real-Time PCR system (Applied Biosystems) and TaqMan assays to detect the expression of SIGMAR1, TMEM97, GRP78/BiP, ATF4, and CHOP genes.
Reactions were carried out in triplicate at a final volume of 20 μL containing 40 ng of cDNA template, TaqMan universal PCR Master Mix (2X), and selected TaqMan assays (20X). Samples were maintained at 50°C for 2 min, then at 95°C for 10 min followed by 40 amplification cycles at 95°C for 15 s, and at 60°C for 30 s.
The amount of mRNA was normalized to the endogenous genes GAPDH and HPRT-1.

Structure (SMILES): C/C(=C\CN1CCC(Cc2ccccc2)CC1)c1ccc2ccccc2c1 [RC-106, (E)-4-benzyl-1-(3-(naphthalen-2-yl)but-2-en-1-yl)piperidine]
- IC50 (Capan-2; CAPAN-2, 24 h exposure, read-out: IC50 values 24h): 52.6 ± 0.07 µM
- IC50 (Capan-2; CAPAN-2, 48 h exposure, read-out: IC50 values 48h): 54.2 ± 2.18 µM
- IC50 (Capan-2; CAPAN-2, 72 h exposure, read-out: IC50 values 72h): 53.3 ± 1.62 µM
- IC50 (Capan-1; CAPAN-1, 24 h exposure, read-out: IC50 values 24h): 56.8 ± 0.98 µM
- IC50 (Capan-1; CAPAN-1, 48 h exposure, read-out: IC50 values 48h): 50.3 ± 3.04 µM
- IC50 (Capan-1; CAPAN-1, 72 h exposure, read-out: IC50 values 72h): 32.8 ± 3.43 µM
- IC50 [1]: 33 to 57 µM
- S1R modulatory profile (S1R): S1R antagonist
- AUC(0-t) ([2]; pancreas, 10 mg/kg, i.p., 10 mg/kg, read-out: AUC0-t, pancreas (converted)): 28.8 µg·h/mL
- concentration at 5 min ([2]; pancreas, 5 min after i.p. 10 mg/kg, read-out: pancreas C): 25300 ng/g
- concentration at 10 min ([2]; pancreas, 10 min after i.p. 10 mg/kg, read-out: pancreas C): 13900 ng/g
- concentration at 30 min ([2]; pancreas, 30 min after i.p. 10 mg/kg, read-out: pancreas C): 11100 ng/g
- concentration at 120 min ([2]; pancreas, 120 min after i.p. 10 mg/kg, read-out: pancreas C): 2710 ng/g
- concentration at 240 min ([2]; pancreas, 240 min after i.p. 10 mg/kg, read-out: pancreas C): 2310 ng/g
- concentration at 480 min ([2]; pancreas, 480 min after i.p. 10 mg/kg, read-out: pancreas C): 995 ng/g
- Tmax ([2]; pancreas, 10 mg/kg): 5 min
- Cmax ([2]; pancreas, i.p., 10 mg/kg, read-out: Cmax, pancreas): 25300 ± 5600 ng/g
- Cmax ([2]; pancreas, i.p., 10 mg/kg, read-out: Cmax, pancreas (molar)): ~70 µM
- half-life ([2]; pancreas, i.p., 10 mg/kg, read-out: t1/2, pancreas): 4 h
- Kp ([2]; pancreas/plasma, 10 mg/kg, i.p., 10 mg/kg, read-out: AUC0-t pancreas/AUC0-t plasma): ~25
- mRNA expression of ER markers GRP78/BiP, ATF4, and CHOP [3]: highly increased
